According to publication PMC10914731, “Homo-BacPROTAC-induced degradation of ClpC1 as a strategy against drug-resistant mycobacteria” (Nature Communications, 2024):
≈ marks a conversion by molar mass, not a printed value. Where “and” joins values, the source holds several entries; their conditions need not be identical. Equal entries are not always repeated. Where two headings read alike, the source gives them in different places. *1 amine or outer side, *2 acyl side, *3 side chain or, on linkers, in order; H or OH if unused. Where a SMILES comes first, the peptide text is derived from it. [ ]: non-standard residue; d: D form. X3 = C#CCOc1ccc([C@@H](OC)[C@H](N[*:1])C(=O)[*:2])cc1; X2 = C#CCn1cc(C[C@@H](C(=O)[*:2])N(C)[*:1])c2ccccc21; NMeTrp(1-Me) = CN[C@@H](Cc1cn(C)c2ccccc12)C(=O)O; X4 = C=CCO[C@H](c1ccccc1)[C@H](N[*:1])C(=O)[*:2]; NMeLeu(5-OH,4R) = CN[C@@H](C[C@@H](C)CO)C(=O)O; Phe(βR-OMe) = CO[C@H](c1ccccc1)[C@H](N)C(=O)O; Trp(1-Me) = Cn1cc(C[C@H](N)C(=O)O)c2ccccc21; NMeL = CN[C@@H](CC(C)C)C(=O)O

Columns and labels:
[1] = type: in vitro ADME, Human; settings: human, pH 7.4
[2] = type: in vitro ADME, Rat; settings: for Microsomal Stability Rat: clearance in microsomes
Method: (§1) The kinetics of compound degradation in liver microsomes is assessed in an assay with 1 µmol/l of compound and 0.5 mg/ml liver microsomes in a medium of 100 mM Tris-HCl pH 7.5, 6.5 mM MgCl2 and 1 mM NADPH at 37 °C. The reaction is stopped at multiple time points by adding acetonitrile. After centrifugation, the compound concentration is measured in the supernatants by high-performance liquid chromatography (HPLC) tandem mass spectrometry (MS/MS). The results are fitted to a first-order decay and the half-lives are converted to clearance (stated as % of the liver blood flow (%Qh)) using the well-stirred liver model.

[3] = type: in vitro ADME, Mice; settings: for Microsomal Stability Mice: clearance in microsomes
Method: as §1

in vitro = settings: human; for efflux ratio: Caco-2
Procedure, shortened: (§2)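 Values are bidirectional Caco-2 apparent permeabilities, P(A−B) and P(B−A), given in 10^-6 cm s-1. The efflux ratio divides P(B−A) by P(A−B), and intrinsic permeability averages the two directions.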

Caco-2 monolayers = assay: in vitro; settings: human, Caco-2
Procedure, shortened: as §2

Msm 700084 = assay: microbe, parasite or virus in culture; type: cell-based
[4] = type: in vitro ADME, Rat; settings: rat, pH 7.4
[5] = Hepatocyte stability, mice; type: in vitro ADME; settings: mouse, pH 7.4
Procedure, shortened: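 Cryopreserved mouse hepatocytes (about 1 million cells/mL, pH 7.4, 50% species serum) incubated with 1 µM compound, DMSO <0.05%, at 37 °C for up to 6 h, sampled at 6 time points. Parent remaining measured by HPLC-MS/MS; half-life converted via well-stirred liver model to clearance as % Qh.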

[6] = test system: M. tuberculosis H37Rv (ATCC 27294); assay: microbe, parasite or virus in culture; type: cell-based; settings: Mycobacterium tuberculosis
Msm 607 = assay: microbe, parasite or virus in culture; type: cell-based
[7] = Microsomal stability, human; type: in vitro ADME; settings: for Microsomal Stability Human: clearance in microsomes
Method: as §1

[8] = molecular target: ClpC1 NTD protein (M. tuberculosis) (Mycobacterium tuberculosis, UniProt P9WPC9); assay: biochemical; type: binding
[9] = Mycolicibacterium smegmatis, 700084, single determinations, read-out: Msm 700084 MIC
[10] = Mycolicibacterium smegmatis, 700084, read-out: MIC Msm 700084
[11] = M. tuberculosis H37Rv strain, read-out: MIC Mtb H37Rv Mean ± SD
[12] = Mtb H37Rv (Supplementary Table 2), read-out: MIC Mtb
[13] = individual measurements (source data), read-out: Mtb MIC
[14] = single determinations, read-out: Mtb MIC
[15] = Mycolicibacterium smegmatis, 607, read-out: MIC Msm 607
[16] = Mycolicibacterium smegmatis, 607, read-out: Msm 607 MIC, single determinations
[17] = SPR dissociation rate constant, read-out: koff ClpC1-NTD Mean ± SD
[18] = SPR, individual measurements (source data), read-out: KD ClpC1-NTD
[19] = SPR, single independent measurements
[20] = SPR, single independent measurements, read-out: koff ClpC1-NTD
[21] = SPR, read-out: ClpC1-NTD KD Mean ± SD
[22] = Caco-2, Caco-2 permeability P (A-B)
[23] = SPR (Supplementary Table 1), read-out: KD ClpC1-NTD Mean ± SD
[24] = SPR, single independent measurements, read-out: KD ClpC1-NTD
[25] = Caco-2, Caco-2 permeability P (B-A)

Chain of ClpC1 NTD protein (M. tuberculosis) (P9WPC9 1-156, looked up, natural form): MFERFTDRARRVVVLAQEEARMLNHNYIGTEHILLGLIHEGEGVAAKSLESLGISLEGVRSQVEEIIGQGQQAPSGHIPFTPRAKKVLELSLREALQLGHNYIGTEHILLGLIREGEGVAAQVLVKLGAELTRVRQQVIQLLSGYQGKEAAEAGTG

| SMILES | Hepatocyte Stability Human QH [1] [%] | Microsomal Stability Rat QH [2] | Microsomal Stability Rat [2] [%Qh] | Microsomal Stability Mouse QH [3] | Microsomal Stability Mice [3] [%Qh] | efflux ratio (in vitro) | Papp B→A (in vitro; Caco-2, CACO permeability PEBA) [×10⁻⁶ cm/s] | Caco-2 Int. Perm (Caco-2 monolayers) | MIC (Msm 700084; [9]) [µM] | MIC (Msm 700084; [10]) [µM] | Hepatocyte Rat [4] [%Qh] | Hepatocyte Stability Rat QH [4] [%] | Hepatocyte Mice [5] [%Qh] | Hepatocyte Stability Mouse QH [5] [%] | MIC [6, 12] [µM] | MIC [6, 14] [µM] | MIC (Msm 607; [15]) [µM] | MIC (Msm 607; [16]) [µM] | Microsomal Stability Human QH [7] | Microsomal Stability Human [7] [%Qh] | other results |
| --- | --- | --- | --- | --- | --- | --- | --- | --- | --- | --- | --- | --- | --- | --- | --- | --- | --- | --- | --- | --- | --- |
| C#CCn1cc(C[C@H]2C(=O)N(C)[C@@H](C[C@@H](C)CO)C(=O)N[C@@H](C)C(=O)N[C@@H]([C@H](OC)c3ccccc3)C(=O)N[C@@H](C(C)C)C(=O)N(C)[C@@H](CC(C)C)C(=O)N[C@@H](C(C)C)C(=O)N2C)c2ccccc21 [Compound 26] (cyclo(A[Phe(βR-OMe)]V[NMeL]V[X2][NMeLeu(5-OH,4R)])) | 43.919 | >87.900% | > 88 | >88.400% | > 88 | 2.2 | 49 | 24.0 | 12.5 (≈ 11.9 µg/mL) | 12.5 (≈ 11.9 µg/mL) | 68 | 67.861 | 67 | 66.557 | 6.3 (≈ 6.02 µg/mL) | 6.25 (≈ 5.97 µg/mL) | 6.3 (≈ 6.02 µg/mL) | 6.25 (≈ 5.97 µg/mL) | >88.400% | > 88 | Papp A→B (in vitro; Caco-2, CACO permeability PEAB): 25 ×10⁻⁶ cm/s; Influence of N-methylation on permeability (Caco-2 monolayers): 9.3; Permeability Correlation P (A-B) (Caco-2 monolayers): 13.6; Permeability Correlation Ratio (Caco-2 monolayers): 9.3; MIC [6, 11]: 6.3 µM (≈ 6.02 µg/mL); MIC [6, 13]: 6.25 µM (≈ 5.97 µg/mL); koff [8, 17]: 0.04 s⁻¹; Kd [8, 18]: 17 nM and 12.3 nM; koff ClpC1-NTD [8, 19]: 4E-2 4E-2 1/s; koff [8, 20]: 0.04 s⁻¹; Kd [8, 21]: 15 ± 3 nM |
| CO[C@H](c1ccccc1)[C@@H]1NC(=O)[C@H](C)NC(=O)[C@H](C[C@@H](C)CO)N(C)C(=O)[C@H](Cc2cn(C)c3ccccc23)NC(=O)[C@H](CCC(=O)N(C)C)NC(=O)[C@H](CC(C)C)N(C)C(=O)[C@H](C(C)C)NC1=O [SI-74] (cyclo(A[Phe(βR-OMe)]V[NMeL]E(NMe2)[Trp(1-Me)][NMeLeu(5-OH,4R)])) | 12.386 | 60.700% | 85 | 83.700% | 84 | > 6 | 3.4 | 1.7 | 6.25 (≈ 6.09 µg/mL) | 9.4 ± 4.4 (≈ 9.16 µg/mL) | 49 | 48.537 | 38 | 37.632 | 3.1 (≈ 3.02 µg/mL) | 3.12 (≈ 3.04 µg/mL) | 0.8 (≈ 0.779 µg/mL) | 0.78 (≈ 0.76 µg/mL) | 85.000% | 61 | Hepatocyte Human [1]: 12 %Qh; Papp A→B (in vitro; Caco-2, CACO permeability PEAB): < 0.46 ×10⁻⁶ cm/s; Papp A→B (in vitro; [22]): < 0.5 ×10⁻⁶ cm/s; MIC (Msm 700084; single determinations, read-out: Msm 700084 MIC): 12.500 µM (≈ 12.2 µg/mL); Kd [8, 23]: 4 ± 2 nM; Kd [8, 24]: 3.28 nM and 5.58 nM |
| C#CCOc1ccc([C@@H](OC)[C@@H]2NC(=O)[C@H](C)NC(=O)[C@H](C[C@@H](C)CO)N(C)C(=O)[C@H](Cc3cn(C)c4ccccc34)NC(=O)[C@H](C(C)C)NC(=O)[C@H](CC(C)C)N(C)C(=O)[C@H](C(C)C)NC2=O)cc1 [SI-38] (cyclo(A[X3]V[NMeL]V[Trp(1-Me)][NMeLeu(5-OH,4R)])) | 19.299 | 58.700% | 59 | 72.800% | 73 | – | 18 | 9.1 | 12.5 (≈ 12.1 µg/mL) | 12.5 (≈ 12.1 µg/mL) | 37 | 37.130 | 15 | 15.001 | 1.6 (≈ 1.55 µg/mL) | 1.56 (≈ 1.52 µg/mL) | 25 (≈ 24.3 µg/mL) | 25 (≈ 24.3 µg/mL) | 83.600% | 84 | Hepatocyte Human [1]: 19 %Qh; Papp A→B (in vitro; [22]): < 0.2 ×10⁻⁶ cm/s; Papp B→A (in vitro; [25]): 18 ×10⁻⁶ cm/s; Kd [8, 23]: 5.6 ± 0.6 nM; koff ClpC1-NTD [8, 19]: 0.04 s⁻¹; Kd [8, 24]: 6 nM and 5.19 nM; koff [8, 20]: 0.06 s⁻¹ |
| CO[C@H](c1ccccc1)[C@@H]1NC(=O)[C@H](C)NC(=O)[C@H](C[C@@H](C)CO)N(C)C(=O)[C@H](Cc2cn(C)c3ccccc23)N(C)C(=O)[C@H](CCC(=O)N(C)C)NC(=O)[C@H](CC(C)C)N(C)C(=O)[C@H](C(C)C)NC1=O [SI-76] (cyclo(A[Phe(βR-OMe)]V[NMeL]E(NMe2)[NMeTrp(1-Me)][NMeLeu(5-OH,4R)])) | 19.852 | 78.000% | 78 | >88.400% | > 88 | > 84 | 10 | 4.3 | 25 (≈ 24.7 µg/mL) | 25 (≈ 24.7 µg/mL) | 52 | 52.287 | 23 | 23.483 | 6.3 (≈ 6.23 µg/mL) | 6.25 (≈ 6.18 µg/mL) | 12.5 (≈ 12.4 µg/mL) | 12.5 (≈ 12.4 µg/mL) | >88.400% | > 88 | Papp A→B (in vitro; Caco-2, CACO permeability PEAB): < 0.11 ×10⁻⁶ cm/s; Papp A→B (in vitro; [22]): < 0.1 ×10⁻⁶ cm/s; Kd [8, 23]: 26 ± 6 nM; koff [8, 17]: 0.06 s⁻¹; koff ClpC1-NTD [8, 19]: 6E-2 6E-2 1/s; Kd [8, 24]: 21.4 nM and 30.5 nM; koff [8, 20]: 0.06 s⁻¹ |
| C=CCO[C@H](c1ccccc1)[C@@H]1NC(=O)[C@H](C)NC(=O)[C@H](C[C@@H](C)CO)N(C)C(=O)[C@H](Cc2cn(C)c3ccccc23)NC(=O)[C@H](C(C)C)NC(=O)[C@H](CC(C)C)N(C)C(=O)[C@H](C(C)C)NC1=O [Compound 14] (cyclo(A[X4]V[NMeL]V[Trp(1-Me)][NMeLeu(5-OH,4R)])) | 41.006 | 84.3% and 84% | 84 | >88.4 >88.4% | > 88 | 12.1 | 30 | 21.7 | 12.5 (≈ 11.8 µg/mL) | 12.5 (≈ 11.8 µg/mL) | 57 | 56.626 | 29 | 28.905 | 3.1 (≈ 2.92 µg/mL) | 3.12 (≈ 2.95 µg/mL) | 1.6 (≈ 1.51 µg/mL) | 1.56 (≈ 1.47 µg/mL) | >88.4 >88.4% | > 88 | Hepatocyte Human [1]: 41 %Qh; Kd [8, 23]: 10 ± 1 nM; Kd [8, 24]: 9.31 nM and 10.7 nM |
| CCCCCn1cc(C[C@@H]2NC(=O)[C@H](CC(C)C)N(C)C(=O)[C@H](C(C)C)NC(=O)[C@H]([C@H](OC)c3ccccc3)NC(=O)[C@H](C)NC(=O)[C@H](C[C@@H](C)CO)N(C)C(=O)[C@H](Cc3cn(C)c4ccccc34)N(C)C2=O)nn1 [Compound 25] | – | 62% and 62.6% | 62 | 79.2% and 83.9% | 82 | 25.1 | – | 11.4 | 12.5 (≈ 13 µg/mL) | 12.5 (≈ 13 µg/mL) | 16 | – | 21 | 27.872 | 6.3 (≈ 6.55 µg/mL) | 6.25 (≈ 6.5 µg/mL) | 12.5 (≈ 13 µg/mL) | 12.5 (≈ 13 µg/mL) | >88.4 >88.4% | > 88 | Hepatocyte Human [1]: 30 %Qh; Papp A→B (in vitro; Caco-2, CACO permeability PEAB): 0.87 ×10⁻⁶ cm/s; Papp A→B (in vitro; [22]): 0.9 ×10⁻⁶ cm/s; Papp B→A (in vitro; [25]): 22 ×10⁻⁶ cm/s; Permeability Correlation P (A-B) (Caco-2 monolayers): > 3; Permeability Correlation Ratio (Caco-2 monolayers): > 1.5; MIC [6, 11]: 6.3 µM (≈ 6.55 µg/mL); MIC [6, 13]: 6.25 µM (≈ 6.5 µg/mL); koff [8, 17]: 0.1 s⁻¹; Kd [8, 18]: 26.2 nM and 26 nM; koff ClpC1-NTD [8, 19]: 1E-1 1E-1 1/s; koff [8, 20]: 0.1 s⁻¹; Kd [8, 21]: 26.1 ± 0.1 nM |
